Laboratory results as given in patent US10383837B2, “Compositions and methods for modulating metabolic pathways” (NuSirt Sciences, Inc., priority 2011, dated 2019).

What was measured:
Adipocytes (3T3-L1) = assay: Fatty acid oxidation by 3H-palmitate in 3T3-L1 adipocytes; type: cell-based; settings: 4 hours, low (5 mM) glucose, resveratrol 200 nM, HMB 5 uM, leucine 0.5 mM
Procedure: High glucose medium reduced fatty acid oxidation by 46% (p<0.05).
Fatty acid oxidation was measured using ^3H-labeled palmitate oxidation, with the ^3H label trapped as water as a result of the fat oxidation. The ^3H was then measured via scintillation counter.

myotubes (C2C12) = assay: Fatty acid oxidation, palmitate-induced O2 consumption (Seahorse XF24), myotubes; type: cell-based; settings: 24 hours treatment, leucine 0.5 mM, HMB 5 μM, resveratrol 200 nM, partner at its no-effect concentration, % change from control
UCP1 = UCP1 mRNA expression in subcutaneous adipose tissue of diet-induced obese mice; type: in vivo, c57/BL6 mice; settings: six weeks, resveratrol 12.5 mg/kg diet, leucine 2.42%
Procedure: Expression of 18S, Sirt1, Sirt3, PGC1-α, cytochrome c oxidase subunit VIIc1 (COX 7), mitochondrial NADH dehydrogenase, nuclear respiratory factor 1 (NRF1), uncoupling protein (UCP2 (adipocyte)/UCP3 (myocyte), p53, AMPK, Akt/PKB, and GLUT4 is measured via quantitative real-time PCR using an ABI 7300 Real-Time PCR system (Applied Biosystems, Branchburg, N.J.) with a TaqMan® core reagent kit. All primers and probe sets can be obtained from Applied Biosystems TaqMan® Assays-on-Demand and utilized accordingly to manufacturer's instructions. Pooled RNA from each cell type are serial-diluted in the range of 0.0156-50 ng and were used to establish a standard curve; total RNA for each unknown sample is also diluted in this range. […] Expression of each gene of interest is then normalized using the corresponding 18S quantitation.
Six week old male c57/BL6 mice were fed a high-fat diet with fat increased to 45% of energy (Research Diets D12451) for 6 weeks to induce obesity. […] RNA was extracted from the subcutaneous adipose tissue, and gene expression was evaluated according to methods described in Example 4. […] Plasma levels of irisin were also evaluated, the results of which are described in Example 8 and illustrated in FIG. 70. […] Protein expression may also be determined by Western blot or ELISA, as in Example 8. […]

SIRT1 [1] = target: T1, SIRT1 (Mus musculus, UniProt Q923E4); assay: Sirt1 activity of treated cells (SIRT1 Fluorimetric Drug Discovery Kit), Example 5; type: cell-based; design: endogenous in cells; host or cells: 3T3-L1 adipocytes and C2C12 myotubes; settings: leucine 0.5 mM, HMB 5 μM, resveratrol 200 nM; summary in Example 5, system not stated
T1 sequence (Q923E4 1-737): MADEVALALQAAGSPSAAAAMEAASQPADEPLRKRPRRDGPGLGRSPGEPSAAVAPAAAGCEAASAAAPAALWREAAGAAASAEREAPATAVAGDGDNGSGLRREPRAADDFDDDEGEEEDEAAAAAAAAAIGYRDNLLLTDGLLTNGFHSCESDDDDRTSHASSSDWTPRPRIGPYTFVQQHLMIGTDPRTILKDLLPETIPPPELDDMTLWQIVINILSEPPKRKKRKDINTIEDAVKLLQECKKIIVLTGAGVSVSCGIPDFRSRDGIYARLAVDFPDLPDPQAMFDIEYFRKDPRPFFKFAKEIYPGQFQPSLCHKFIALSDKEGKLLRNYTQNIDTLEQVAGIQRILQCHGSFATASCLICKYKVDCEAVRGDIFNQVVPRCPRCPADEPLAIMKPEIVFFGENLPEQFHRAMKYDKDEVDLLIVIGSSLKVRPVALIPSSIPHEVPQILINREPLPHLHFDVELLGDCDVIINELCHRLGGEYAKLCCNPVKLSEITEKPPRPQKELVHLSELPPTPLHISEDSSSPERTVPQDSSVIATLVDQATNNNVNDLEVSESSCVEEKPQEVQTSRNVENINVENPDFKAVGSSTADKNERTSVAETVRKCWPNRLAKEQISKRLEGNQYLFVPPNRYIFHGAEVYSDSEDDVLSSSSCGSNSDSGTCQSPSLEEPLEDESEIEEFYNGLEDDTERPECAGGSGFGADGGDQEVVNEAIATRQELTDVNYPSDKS
Procedure: All compounds were tested for potential to independently or synergistically modulate sirtuin signaling either by direct stimulation or indirect via upstream signaling via AMPK. A key outcome of Sirt1 signaling is stimulation of PGC1-α and subsequent stimulation of mitochondrial biogenesis and fatty acid oxidation. Accordingly, fatty acid oxidation, measured as palmitate-induced oxygen consumption as described below, was utilized as a sensitive first level of screening for aerobic mitochondrial metabolism. A dose-response curve for fatty acid oxidation was established for each compound studied, and a “sub-therapeutic dose” was defined as the highest dose that exerted no effect in this system. […] Following assessment of fatty acid oxidation, Sirt1 activity, AMPK activity, mitochondrial biogenesis and glucose utilization (measured as glucose-induced extracellular acidification in the absence of fatty acids in the media) were assessed for lead combinations and appropriate controls. SIRT1 activity was measured by using the SIRT1 Fluorimetric Drug Discovery Kit (BML-AK555, ENZO Life Sciences International, Inc. PA, USA). […]

SIRT1 [2] = target: T1, SIRT1; assay: Adipose tissue Sirt1 activity in diet-induced obese mice; type: in vivo, c57/BL6 mice; design: from tissue; host or cells: adipose tissue of diet-induced obese c57/BL6 mice; settings: 6 weeks

stimulation of Sirt1 activity (SIRT1 [1]): no effect
SMILES: Oc1ccc(/C=C/c2cc(O)cc(O)c2)cc1 [resveratrol, 3,5,4′-Trihydroxy-trans-stilbene]
increase in fatty acid oxidation, low glucose (Adipocytes (3T3-L1)): no independent effect | increase in myotube fatty acid oxidation (myotubes (C2C12)): neither component exerted an independent effect | increase in UCP1 expression in white subcutaneous adipose tissue (UCP1): no independent effect | adipose tissue Sirt1 activity (SIRT1 [2]; high dose resveratrol): non-significant trend towards an increase | adipose tissue Sirt1 activity (SIRT1 [2]; low dose of resveratrol, HMB, leucine diets): Neither resveratrol nor HMB exerted significant independent effects
